Experimental data taken from PubChem BioAssay AID1918994 (Molecular Pharmacology Branch, DTP, NCI, 2023).

Tested on: 292921-168-R-J2-PDC complex spheroid growth
Assay: Anticancer human tumor 292921-168-R-J2-PDC patient-derived pancreatic carcinoma cell line growth inhibition [AhR]
Settings: for viability, T/C: stronger effect = lower value
Description: Multicellular complex tumor spheroid response to aryl hydrocarbon receptor antagonists in combination with a variety of drugs and investigational agents in selected tumor cell lines
The current study was undertaken to assess response to aryl hydrocarbon receptor antagonists in combination with standard-of-care drugs and investigational agents in solid tumor complex spheroid models. Complex spheroids include a stromal component modeled by human endothelial cells (HUVEC) and fibroblasts modeled by human mesenchymal stem cells (MSCs). The concentration ranges selected for each drug and investigational agent were based upon clinically achievable concentrations if the clinical Cmax of the agent was known.
Compounds. The drugs and investigational agents: BAY 2416964 (NSC825713), GNF351 (NSC835774), CH-223191 (NSC835775), CPI-455 (NSC825282), aza-TdCyd (NSC777586), decitabine (NSC127716), belinostat (NSC758774), entinostat (NSC756642), pevonedistat (NSC761192), tazemetostat (NSC777109), talazoparib (NSC765396), olaparib (NSC753686), selinexor (NSC780203), nedisertib (M3814, NSC802822), bortezomib (NSC756655), venetoclax (NSC766270), doxorubicin (NSC123127), elimusertib (BAY189344, NSC800525), ceralasertib (AZD6738, NSC777638), TAK-243 (NSC785004), alisertib (NSC759677), etoposide (NSC141540), topotecan (NSC609699), eribulin (NSC707389), gemcitabine (NSC613327), carboplatin (NSC241240), cisplatin (NSC119875), and SN-38 (NSC673596) were obtained from the National Cancer Institute (NCI) Developmental Therapeutics Program Chemical Repository (32). The FDA-approved anticancer drug set is available from the Developmental Therapeutics Program at https://dtp.cancer.gov/organization/dscb/obtaining/available plates.htm. […] The stock solutions were prepared in dimethyl sulfoxide (DMSO, Sigma-Aldrich, St. Louis, MO, cat. D2650), except for the platinum compounds which were prepared in saline (Quality Biological, Gaithersburg, MD, cat. 114-055-101), at 800-fold the tested concentration and stored at -70 degrees C prior to their use. All drugs and investigational agents were tested over a range starting from a high concentration at or near the clinical Cmax and decreasing in half-log increments. If the clinical Cmax for an agent had not been determined, the highest concentration tested was 10 microM (Table 1).
Cell Culture. All cells were maintained in an incubator at 37 degrees C and 5% CO2 with 95% humidity. The PDC lines were cultured according to standard operating procedures established by the NCI PDMR (https://pdmr.cancer.gov). Briefly, all PDCs were thawed and cultured in Matrigel-coated flasks prepared with a working solution of 1X Ham's F-12 nutrient mix, without supplementation (Invitrogen, Waltham, MA, cat. 11765054), 100 U/mL penicillin-streptomycin (Invitrogen, cat. 15140122), and 2.5% Matrigel (Corning Inc., Corning, NY, cat. 354248) for the first three passages. All PDCs were cultured in complete DMEM/F-12 media containing advanced DMEM/F-12 (Invitrogen, cat. 12634028), 4.9% defined fetal bovine serum, heat inactivated (HyClone Laboratories Inc., Logan, UT, cat. SH30070.03HI), 389 ng/mL hydrocortisone (Sigma-Aldrich, cat. H4001), 9.7 ng/mL human EGF recombinant protein (Invitrogen, cat. PHG0313), 23.4 microg/mL adenine (Sigma-Aldrich, cat. A2786), 97.3 U/mL penicillin-streptomycin (Invitrogen, cat. 15140122), 1.9 mM L-glutamine (Invitrogen, cat. 25030081), and 9.7 microM Y-27632 dihydrochloride (Tocris Bioscience, Bristol, United Kingdom, cat. 1254). The PDCs were cultured in complete DMEM/F12 media without 10 microM Y-27632 dihydrochloride for at least two passages prior to the screen. The established cell lines NCI-H1341 and […] were cultured in DMEM/F-12, HEPES (Invitrogen, cat. 11330032), 5% defined fetal bovine serum (HyClone Laboratories Inc., cat. SH30070.03), ITS premix universal culture supplement [insulin (5 microg/mL), transferrin (5 microg/mL), and selenious acid (5 ng/mL)] […]

[1] = curve of first compound, second compound 0.1 µM
[2] = curve of first compound, second compound 0.316 µM
[3] = curve of first compound, second compound 1 µM
[4] = curve of first compound, second compound 3.16 µM
[5] = curve of first compound, second compound 10 µM
[6] = second compound 0.1 µM, first compound 0.0316 µM
[7] = second compound 0.1 µM, first compound 0.1 µM
[8] = second compound 0.1 µM, first compound 0.316 µM
[9] = second compound 0.1 µM, first compound 1 µM
[10] = second compound 0.1 µM, first compound 3.16 µM
[11] = second compound 0.1 µM, first compound 10 µM
[12] = second compound 0.316 µM, first compound 0.0316 µM
[13] = second compound 0.316 µM, first compound 0.1 µM
[14] = second compound 0.316 µM, first compound 0.316 µM
[15] = second compound 0.316 µM, first compound 1 µM
[16] = second compound 0.316 µM, first compound 3.16 µM
[17] = second compound 0.316 µM, first compound 10 µM
[18] = second compound 1 µM, first compound 0.0316 µM
[19] = second compound 1 µM, first compound 0.1 µM
[20] = second compound 1 µM, first compound 0.316 µM
[21] = second compound 1 µM, first compound 1 µM
[22] = second compound 1 µM, first compound 3.16 µM
[23] = second compound 1 µM, first compound 10 µM
[24] = second compound 3.16 µM, first compound 0.0316 µM
[25] = second compound 3.16 µM, first compound 0.1 µM
[26] = second compound 3.16 µM, first compound 0.316 µM
[27] = second compound 3.16 µM, first compound 1 µM
[28] = second compound 3.16 µM, first compound 3.16 µM
[29] = second compound 3.16 µM, first compound 10 µM
[30] = second compound 10 µM, first compound 0.0316 µM
[31] = second compound 10 µM, first compound 0.1 µM
[32] = second compound 10 µM, first compound 0.316 µM
[33] = second compound 10 µM, first compound 1 µM
[34] = second compound 10 µM, first compound 3.16 µM
[35] = second compound 10 µM, first compound 10 µM
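Further: spheroids exposed to compounds for seven days after three days of growth.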

Cc1ccccc1N=Nc1ccc(NC(=O)c2ccnn2C)c(C)c1
viability, T/C (compound 0.1 µM): 91.3% [middle of 19 runs] | viability, T/C (compound 0.316 µM): 85.6% [middle of 20 runs] | viability, T/C (compound 1 µM): 82.1% [middle of 20 runs] | viability, T/C (compound 10 µM): 62.7% [middle of 21 runs] | IC50 (compound alone, run of 06/14/2022): > 10000 nM

COc1cc(C2c3cc4c(cc3C(OC3OC5COC(C)OC5C(O)C3O)C3COC(=O)C23)OCO4)cc(OC)c1O (stereo not given) + CC(CO)NC(=O)c1cc(-c2ccc(Cl)cc2)nn(-c2cnn(C)c2)c1=O
IC50 [1]: 645 nM | IC50 [2]: 563 nM | IC50 [3]: 542 nM | IC50 [4]: 421 nM | IC50 [5]: 163 nM | viability, T/C [6]: 95.7% | viability, T/C [7]: 92.4% | viability, T/C [8]: 67.9% | viability, T/C [9]: 38% | viability, T/C [10]: 22.6% | viability, T/C [11]: 13.7% | viability, T/C [12]: 89.3% | viability, T/C [13]: 85.5% | viability, T/C [14]: 65% | viability, T/C [15]: 33.6% | viability, T/C [16]: 24.4% | viability, T/C [17]: 13.7% | viability, T/C [18]: 98.8% | viability, T/C [19]: 90.9% | viability, T/C [20]: 61.7% | viability, T/C [21]: 34.4% | viability, T/C [22]: 24.6% | viability, T/C [23]: 13.7% | viability, T/C [24]: 85.1% | viability, T/C [25]: 75% | viability, T/C [26]: 56.3% | viability, T/C [27]: 31.3% | viability, T/C [28]: 22.4% | viability, T/C [29]: 11.8% | viability, T/C [30]: 60.9% | viability, T/C [31]: 60% | viability, T/C [32]: 38.8% | viability, T/C [33]: 27.4% | viability, T/C [34]: 19.6% | viability, T/C [35]: 11.4%

COc1cccc2c1C(=O)c1c(O)c3c(c(O)c1C2=O)CC(O)(C(=O)CO)CC3OC1CC(N)C(O)C(C)O1 (stereo not given) + CC(CO)NC(=O)c1cc(-c2ccc(Cl)cc2)nn(-c2cnn(C)c2)c1=O
IC50 [1]: < 31.6 nM | IC50 [2]: < 31.6 nM | IC50 [3]: < 31.6 nM | IC50 [4]: < 31.6 nM | IC50 [5]: < 31.6 nM | viability, T/C [6]: 32.5% | viability, T/C [7]: 22.5% | viability, T/C [8]: 7.11% | viability, T/C [9]: 1.19% | viability, T/C [10]: 3.72% | viability, T/C [11]: 4.17% | viability, T/C [12]: 31.8% | viability, T/C [13]: 21.6% | viability, T/C [14]: 8.73% | viability, T/C [15]: 1.26% | viability, T/C [16]: 2.17% | viability, T/C [17]: 4.63% | viability, T/C [18]: 31.9% | viability, T/C [19]: 26.1% | viability, T/C [20]: 8.6% | viability, T/C [21]: 1.22% | viability, T/C [22]: 2% | viability, T/C [23]: 4.64% | viability, T/C [24]: 29.6% | viability, T/C [25]: 22.4% | viability, T/C [26]: 5.98% | viability, T/C [27]: 1.4% | viability, T/C [28]: 2.71% | viability, T/C [29]: 3.71% | viability, T/C [30]: 25.2% | viability, T/C [31]: 19.9% | viability, T/C [32]: 4.23% | viability, T/C [33]: 1.07% | viability, T/C [34]: 2.43% | viability, T/C [35]: 5.08%

Nc1ncn(C2CC(O)C(CO)O2)c(=O)n1 (stereo not given) + CC(CO)NC(=O)c1cc(-c2ccc(Cl)cc2)nn(-c2cnn(C)c2)c1=O
IC50 [1]: > 1000 nM | IC50 [2]: > 1000 nM | IC50 [3]: > 1000 nM | IC50 [4]: > 1000 nM | IC50 [5]: > 1000 nM | viability, T/C (second compound 0.1 µM, first compound 0.00316 µM): 102% | viability, T/C (second compound 0.1 µM, first compound 0.01 µM): 93.3% | viability, T/C [6]: 87.1% | viability, T/C [7]: 88.8% | viability, T/C [8]: 80.9% | viability, T/C [9]: 73.7% | viability, T/C (second compound 0.316 µM, first compound 0.00316 µM): 101% | viability, T/C (second compound 0.316 µM, first compound 0.01 µM): 96.3% | viability, T/C [12]: 105% | viability, T/C [13]: 90.8% | viability, T/C [14]: 85.8% | viability, T/C [15]: 77.8% | viability, T/C (second compound 1 µM, first compound 0.00316 µM): 97.5% | viability, T/C (second compound 1 µM, first compound 0.01 µM): 104% | viability, T/C [18]: 103% | viability, T/C [19]: 94.5% | viability, T/C [20]: 86.2% | viability, T/C [21]: 78.8% | viability, T/C (second compound 3.16 µM, first compound 0.00316 µM): 94.7% | viability, T/C (second compound 3.16 µM, first compound 0.01 µM): 91% | viability, T/C [24]: 92.4% | viability, T/C [25]: 76.5% | viability, T/C [26]: 81.4% | viability, T/C [27]: 69.5% | viability, T/C (second compound 10 µM, first compound 0.00316 µM): 70.3% | viability, T/C (second compound 10 µM, first compound 0.01 µM): 72.8% | viability, T/C [30]: 71% | viability, T/C [31]: 73% | viability, T/C [32]: 63% | viability, T/C [33]: 62.5%
